Columns and labels:
Experiment in all cases: relative viability (nuclei count vs DMSO), 5 days (fraction); higher = more cells survive
[1] = tested on: NCI-H1915
How it was run: (§1)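 Five library-drug doses in √10 steps were combined with a fixed anchor-drug dose, or a single drug was given alone, by pin tool to lung cancer cell lines in 1536-well plates the day after seeding. Nuclei were stained and counted after 5 days. Relative viability is the nuclei count in treated wells over that in vehicle wells, taken as the median of duplicate plates.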

[2] = tested on: NCI-H322M
How it was run: as §1

[3] = tested on: NCI-H2085
How it was run: as §1

[4] = tested on: NCI-H2126
How it was run: as §1

[5] = tested on: EPLC-272H
How it was run: as §1

[6] = tested on: SK-LU-1
How it was run: as §1

[7] = tested on: LCLC-97TM1
How it was run: as §1

[8] = tested on: NCI-H1993
How it was run: as §1

[9] = tested on: NCI-H647
How it was run: as §1

[10] = tested on: NCI-H2347
How it was run: as §1

[11] = tested on: NCI-H727
How it was run: as §1

## O=c1cc(-c2cccc3c2Sc2ccccc2S3)oc(N2CCOCC2)c1 + CC(=O)c1c(C)c2cnc(Nc3ccc(N4CCNCC4)cn3)nc2n(C2CCCC2)c1=O [Palbociclib] (partner 0.5 µM)
[1]; first compound 0.8 µM
  relative viability: 0.541
[1]; first compound 2.53 µM
  relative viability: 0.509
[1]; first compound 8 µM
  relative viability: 0.497
[2]; first compound 0.08 µM
  relative viability: 0.453
[2]; first compound 0.253 µM
  relative viability: 0.474
[2]; first compound 0.8 µM
  relative viability: 0.502
[2]; first compound 2.53 µM
  relative viability: 0.449
[2]; first compound 8 µM
  relative viability: 0.475
[3]; first compound 0.08 µM
  relative viability: 0.431
[3]; first compound 0.253 µM
  relative viability: 0.508
[3]; first compound 0.8 µM
  relative viability: 0.471
[3]; first compound 2.53 µM
  relative viability: 0.467
[3]; first compound 8 µM
  relative viability: 0.412
[4]; first compound 0.08 µM
  relative viability: 0.393
[4]; first compound 0.253 µM
  relative viability: 0.361
[4]; first compound 0.8 µM
  relative viability: 0.357
[4]; first compound 2.53 µM
  relative viability: 0.358
[4]; first compound 8 µM
  relative viability: 0.357
[5]; first compound 0.08 µM
  relative viability: 0.34
[5]; first compound 0.253 µM
  relative viability: 0.318
[5]; first compound 0.8 µM
  relative viability: 0.321
[5]; first compound 2.53 µM
  relative viability: 0.287
[5]; first compound 8 µM
  relative viability: 0.285
[6]; first compound 0.08 µM
  relative viability: 0.397
[6]; first compound 0.253 µM
  relative viability: 0.354
[6]; first compound 0.8 µM
  relative viability: 0.418
[6]; first compound 2.53 µM
  relative viability: 0.327
[6]; first compound 8 µM
  relative viability: 0.368
[7]; first compound 0.08 µM
  relative viability: 0.247
[7]; first compound 0.253 µM
  relative viability: 0.26
[7]; first compound 0.8 µM
  relative viability: 0.245
[7]; first compound 2.53 µM
  relative viability: 0.228
[7]; first compound 8 µM
  relative viability: 0.241
[8]; first compound 0.08 µM
  relative viability: 0.632
[8]; first compound 0.253 µM
  relative viability: 0.674
[8]; first compound 0.8 µM
  relative viability: 0.526
[8]; first compound 2.53 µM
  relative viability: 0.599
[8]; first compound 8 µM
  relative viability: 0.709
[9]; first compound 0.08 µM
  relative viability: 0.438
[9]; first compound 0.253 µM
  relative viability: 0.487
[9]; first compound 0.8 µM
  relative viability: 0.357
[9]; first compound 2.53 µM
  relative viability: 0.296
[9]; first compound 8 µM
  relative viability: 0.391
[10]; first compound 0.08 µM
  relative viability: 0.42
[10]; first compound 0.253 µM
  relative viability: 0.483
[10]; first compound 0.8 µM
  relative viability: 0.453
[10]; first compound 2.53 µM
  relative viability: 0.39
[10]; first compound 8 µM
  relative viability: 0.483
[11]; first compound 0.08 µM
  relative viability: 0.613
[11]; first compound 0.253 µM
  relative viability: 0.813
[11]; first compound 2.53 µM
  relative viability: 0.512
[11]; first compound 8 µM
  relative viability: 0.613

— the supplement of paper PMC10307832
